Consider 18 compounds from paper PMC3880629 (Journal of medicinal chemistry, 2013).

The target of data set [1] is T1, CB1 wild-type receptor (Homo sapiens, UniProt P21554). Format: binding. The following applies: for α: binding cooperativity factor between CP55,940 and the tested allosteric modulator: HEK293 cell membranes expressing CB1, tracer [3H]CP55,940.
In data set [2] the target is T1, CB1 wild-type receptor. The following applies: earlier report, given for comparison; cited from earlier work.
Data set [3] concerns the target T1, CB1 wild-type receptor. The following applies: cited from earlier work; for Effect on CP55,940-induced [35S]GTPγS binding in the presence of allosteric modulator: earlier report, given for comparison. A general note: GTPγS resists hydrolysis and so accumulates on activated G proteins.
Data set [4] in a line: Solubility in common organic solvents. In kind it is physicochemical. The following applies: acetone, ethyl acetate, tetrahydrofuran, dichloromethane, diethyl ether, ethanol and methanol.
The target of data set [5] is T1, CB1 wild-type receptor. Kind of data set: [35S]GTPγS binding assay. In kind it is biochemical. The following applies: for Concentration giving complete inhibition of CP55,940-induced [35S]GTPγS binding / Effect on CP55,940-induced [35S]GTPγS binding in the presence of allosteric modulator: HEK293 cell membranes expressing CB1.

Where two headings read alike, the source gives them in different places.

T1 sequence (P21554 whole entry): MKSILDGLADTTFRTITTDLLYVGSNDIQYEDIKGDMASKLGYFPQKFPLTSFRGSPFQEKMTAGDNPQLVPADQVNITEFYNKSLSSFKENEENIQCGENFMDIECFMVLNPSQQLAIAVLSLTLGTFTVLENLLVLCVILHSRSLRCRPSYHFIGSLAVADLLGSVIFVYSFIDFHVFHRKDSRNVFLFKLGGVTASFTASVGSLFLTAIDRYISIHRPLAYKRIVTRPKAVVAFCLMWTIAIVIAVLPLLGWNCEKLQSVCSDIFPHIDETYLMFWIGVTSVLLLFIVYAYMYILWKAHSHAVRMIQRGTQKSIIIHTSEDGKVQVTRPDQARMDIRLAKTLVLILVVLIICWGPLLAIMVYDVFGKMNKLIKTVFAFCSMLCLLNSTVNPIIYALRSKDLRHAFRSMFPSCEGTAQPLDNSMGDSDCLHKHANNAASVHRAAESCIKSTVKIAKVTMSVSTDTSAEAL

As for `CCCCCc1c(C(=O)NCc2ccc(N3CCCCC3)cc2)[nH]c2ccc(Cl)cc12` [11g, 5-Chloro-3-pentyl-N-(4-(piperidin-1-yl)benzyl)-1H-indole-2-carboxamide], the “α: binding cooperativity factor between CP55,940 and the tested allosteric modulator” value at CB1 wild-type receptor [1] amounted to 1.0. As for `CCCCCc1c(C(=O)NCCc2ccc(N3CCCCC3)cc2)[nH]c2ccc(Cl)cc12` [11a, 5-Chloro-3-pentyl-N-(4-(piperidin-1-yl)phenethyl)-1H-indole-2-carboxamide], the “α: binding cooperativity factor between CP55,940 and the tested allosteric modulator” value on CB1 wild-type receptor [2] is 17.6. In addition, at CB1 wild-type receptor [3], the “Concentration at which G protein coupling was inhibited” value was 3.2 µM and the “Effect on CP55,940-induced [35S]GTPγS binding in the presence of allosteric modulator” value (“Effect on CP55,940-induced” for short) is given as “Antagonizing”.

As to `O=C(NCCc1ccc(N2CCCCC2)cc1)c1cc2cc(Cl)ccc2o1` [13a, 5-Chloro-N-(4-(piperidin-1-yl)phenethyl)benzofuran-2-carboxamide], the “α: binding cooperativity factor between CP55,940 and the tested allosteric modulator” value at CB1 wild-type receptor [1] was 1.0. `CCc1c(C(=O)NCCc2ccc(N3CCCCC3)cc2)[nH]c2ccc(Cl)cc12` [compound 1, 5-chloro-3-ethyl-N-(4-(piperidin-1-yl)phenethyl)-1H-indole-2-carboxamide, reference compound]: the “α: binding cooperativity factor between CP55,940 and the tested allosteric modulator” value on CB1 wild-type receptor [2] was 6.95. On CB1 wild-type receptor [3], the “Concentration at which G protein coupling was inhibited” value was 3.2 µM and the “Effect on CP55,940-induced” value is “Antagonizing”.

Consider `CN(C)c1ccc(CCNC(=O)c2cc3cc(Cl)ccc3o2)cc1` [13d, 5-Chloro-N-(4-(dimethylamino)phenethyl)benzofuran-2-carboxamide], for which the “α: binding cooperativity factor between CP55,940 and the tested allosteric modulator” value on CB1 wild-type receptor [1] is given as 1.0. As to `O=C(NCCc1ccc(N2CCCCC2)cc1)c1[nH]c2ccc(Cl)cc2c1Cc1ccccc1` [11c, 3-Benzyl-5-chloro-N-(4-(piperidin-1-yl)phenethyl)-1H-indole-2-carboxamide], the “α: binding cooperativity factor between CP55,940 and the tested allosteric modulator” value at CB1 wild-type receptor [1] stood at 11.37. Moreover, the “Solubility in organic solvents” value in data set [4] was “very poor solubility”. For `CCc1c(C(=O)NCCc2ccc(N3CCCCC3)cc2)oc2ccc(Cl)cc12` [13b, 5-Chloro-3-ethyl-N-(4-(piperidin-1-yl)phenethyl)benzofuran-2-carboxamide], the “α: binding cooperativity factor between CP55,940 and the tested allosteric modulator” value at CB1 wild-type receptor [1] worked out at 18.04. On CB1 wild-type receptor [5], the “Concentration giving complete inhibition of CP55,940-induced [35S]GTPγS binding” value is reported as “at least 10 μM” and the “Effect on CP55,940-induced” value is recorded as “Antagonizing”. On to `CCCCCc1c(C(=O)NC(CO)Cc2ccc(N(C)C)cc2)[nH]c2ccc(Cl)cc12` (centres unmarked) [11k, 5-Chloro-N-(1-(4-(dimethylamino)phenyl)-3-hydroxypropan-2-yl)-3-pentyl-1H-indole-2-carboxamide], for which the “α: binding cooperativity factor between CP55,940 and the tested allosteric modulator” value at CB1 wild-type receptor [1] was found to be 13.27. As to `CCc1c(C(=O)NCCc2ccc(N(C)C)cc2)oc2ccc(Cl)cc12` [13c, 5-Chloro-N-(4-(dimethylamino)phenethyl)-3-ethylbenzofuran-2-carboxamide], the “Fold increase in KB on replacing the indole ring with a benzofuran ring” value at CB1 wild-type receptor [1] (13c versus 11l) came to 3 fold. Moreover, the “α: binding cooperativity factor between CP55,940 and the tested allosteric modulator” value at CB1 wild-type receptor [1] amounted to 11.59.

As to `CCCCCCCCCc1c(C(=O)NCCc2ccc(N3CCCCC3)cc2)[nH]c2ccc(Cl)cc12` [11f], the “α: binding cooperativity factor between CP55,940 and the tested allosteric modulator” value at CB1 wild-type receptor [1] was 6.80. For the same compound, at CB1 wild-type receptor [5], the “Concentration giving complete inhibition of CP55,940-induced [35S]GTPγS binding” value is given as “at least 10 μM” and the “Effect on CP55,940-induced” value is listed as “Antagonizing”.

Consider `CCCCCc1c(C(=O)NCCc2ccc(Oc3ccccc3)cc2)[nH]c2ccc(Cl)cc12` [11i, 5-Chloro-3-pentyl-1H-indole-2-carboxylic acid [2-(4-phenoxy-phenyl)-ethyl]-amide], for which the “α: binding cooperativity factor between CP55,940 and the tested allosteric modulator” value at CB1 wild-type receptor [1] came out at 13.15. In the case of `CCCCCc1c(C(=O)NCCc2ccc(N3CCOCC3)cc2)[nH]c2ccc(Cl)cc12` [11h, 5-Chloro-N-(4-morpholinophenethyl)-3-pentyl-1H-indole-2-carboxamide], the “α: binding cooperativity factor between CP55,940 and the tested allosteric modulator” value on CB1 wild-type receptor [1] is given as 10.0. Moreover, at CB1 wild-type receptor [5], the “Concentration giving complete inhibition of CP55,940-induced [35S]GTPγS binding” value was “at least 10 μM” and the “Effect on CP55,940-induced” value is reported as “Antagonizing”. On to `CCCCCCCc1c(C(=O)NCCc2ccc(N3CCCCC3)cc2)[nH]c2ccc(Cl)cc12` [11e], for which the “α: binding cooperativity factor between CP55,940 and the tested allosteric modulator” value at CB1 wild-type receptor [1] is 7.38. Regarding `CCCCCc1c(C(=O)NCCc2ccc(N(C)C)cc2)[nH]c2ccc(Cl)cc12` [11j, 5-Chloro-N-(4-(dimethylamino)phenethyl)-3-pentyl-1H-indole-2-carboxamide], the “α: binding cooperativity factor between CP55,940 and the tested allosteric modulator” value on CB1 wild-type receptor [1] is listed as 16.55. Moreover, on CB1 wild-type receptor [5], the “Concentration giving complete inhibition of CP55,940-induced [35S]GTPγS binding” value is 1 µM and the “Effect on CP55,940-induced” value was “Antagonizing”. The “Concentration giving complete inhibition of basal [35S]GTPγS binding” value on CB1 wild-type receptor [5] (absence of orthosteric ligand, 5 μM GDP) came to 10 µM. `O=C(NCCc1ccc(N2CCCCC2)cc1)c1[nH]c2ccc(Cl)cc2c1CC1CCCCC1` [11d, 5-Chloro-3-(cyclohexylmethyl)-N-(4-(piperidin-1-yl)phenethyl)-1H-indole-2-carboxamide]: on CB1 wild-type receptor [1], the “α: binding cooperativity factor between CP55,940 and the tested allosteric modulator” value was 9.84. In addition, in data set [4], the “Solubility in organic solvents” value is on record as “very poor solubility”. In the case of `CCCCCCC(C)(C)c1ccc([C@@H]2C[C@H](O)CC[C@H]2CCCO)c(O)c1` [CP55,940, 2-[(1R,2R,5R)-5-hydroxy-2-(3-hydroxypropyl)cyclohexyl]-5-(2-methyloctan-2-yl)phenol, reference compound], the “Emax of CP55,940-induced [35S]GTPγS binding” value at CB1 wild-type receptor [5] (in the absence of allosteric modulator (11j), mean ± S.E.) is on record as 113.0 ± 2.6 fmol/mg. Take `O=C(NCCc1ccc(N2CCCCC2)cc1)c1[nH]c2ccc(Cl)cc2c1-c1ccccc1` [11b, 5-Chloro-3-phenyl-N-(4-(piperidin-1-yl)phenethyl)-1H-indole-2-carboxamide]: the “α: binding cooperativity factor between CP55,940 and the tested allosteric modulator” value on CB1 wild-type receptor [1] worked out at 1.0. Also, in data set [4], the “Solubility in organic solvents” value is “very poor solubility”.

Regarding `CCc1c(C(=O)NCCc2ccc(N(C)C)cc2)[nH]c2ccc(Cl)cc12` [11l, 5-Chloro-N-(4-(dimethylamino)phenethyl)-3-ethyl-1H-indole-2-carboxamide], at CB1 wild-type receptor [1], the “α: binding cooperativity factor between CP55,940 and the tested allosteric modulator” value stood at 19.68.
